In series [1] the test system is Puccinia recondita f. Sp. Tritici. The experiment in a line: Fungicidal activity against Puccinia recondita f. sp. tritici / wheat / leaf disc preventative (brown rust). Type of series: in vivo. Conditions: foliar, 200 ppm in the applied formulation, wheat leaf segments cv. Kanzler, preventative (inoculated 1 day after application), compared to untreated, read-out: disease control. Put shortly:
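Segments of wheat cv. Kanzler on water agar were sprayed with compound and inoculated with spores 1 day later. They were kept at 19 °C, 75% rh and 12 h light/12 h dark. Percent disease control versus untreated was scored 7–9 days after application; compounds were tested at 200 ppm.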

For series [2] the test system is unchanged. As to the kind of experiment: Fungicidal activity against Puccinia recondita f. sp. tritici / wheat / leaf disc curative (brown rust). Type of series: in vivo. The conditions noted are these: foliar, 24 h, 200 ppm in the applied formulation, wheat leaf segments cv. Kanzler, curative (applied 1 day after inoculation), compared to untreated, read-out: disease control. Put shortly: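 Wheat leaf segments (cv. Kanzler) on agar were inoculated with brown rust spores, kept dark at 19 °C and 75% RH, then sprayed 1 day later with compound (DMSO stock diluted in 0.025% Tween20). Under 12 h light/12 h dark at 19 °C, percent disease control versus untreated was scored 6–8 days after application; 200 ppm applied.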

The next series deals with Phakopsora pachyrhizi. As to the kind of experiment: Fungicidal activity against Phakopsora pachyrhizi / soybean / leaf disc preventative (Asian soybean rust). Type of series: in vivo. Conditions: foliar, 200 ppm in the applied formulation, soybean leaf disks, compared to untreated, read-out: disease control. The method, then: Leaf disks or leaf segments of various plant species are cut from plants grown in a greenhouse. The cut leaf disks or segments are placed in multiwell plates (24-well format) onto water agar. The leaf disks are sprayed with a test solution before (preventative) or after (curative) inoculation. Compounds to be tested are prepared as DMSO solutions (max. 10 mg/mL) which are diluted to the appropriate concentration with 0.025% Tween20 just before spraying. The inoculated leaf disks or segments are incubated under defined conditions (temperature, relative humidity, light, etc.) according to the respective test system. A single evaluation of disease level is carried out 3 to 14 days after inoculation, depending on the pathosystem. Percent disease control relative to the untreated check leaf disks or segments is then calculated. Soybean leaf disks are placed on water agar in multiwell plates (24-well format) and sprayed with the formulated test compound diluted in water. One day after application leaf discs are inoculated by spraying a spore suspension on the lower leaf surface. After an incubation period in a climate cabinet of 24-36 hours in darkness at 20° C. and 75% rh leaf disc are kept at 20° C. with 12 h light/day and 75% rh. The activity of a compound is assessed as percent disease control compared to untreated when an appropriate level of disease damage appears in untreated check leaf disks (12 to 14 days after application). The following compounds at 200 ppm in the applied formulation give at least 80% disease control in this test when compared to untreated control leaf disks under the same conditions, which show extensive disease development.

The test system of series [3] is Glomerella lagenarium (Colletotrichum lagenarium). As to the kind of experiment: Fungicidal activity against Glomerella lagenarium (Colletotrichum lagenarium) liquid culture / cucumber / preventative (anthracnose). Format: cell-based. Conditions: Colletotrichum orbiculare; 20 ppm in the applied formulation; liquid culture (PDB), inhibition of growth measured photometrically 3 to 4 days after application; compared to untreated; read-out: disease control. Put shortly: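 Conidia from cryogenic storage mixed into potato dextrose broth and added to compound in DMSO in microtiter plates. Incubated at 24° C.; growth inhibition read photometrically 3 to 4 days after application. Disease control expressed relative to untreated control, with compound at 20 ppm in the applied formulation.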

This is an account of results in patent US11358957B2, “Microbiocidal oxadiazole derivatives” (SYNGENTA PARTICIPATIONS AG, priority 2017, dated 2022).

For `CCOC(=O)c1ncn(Cc2ccc(-c3noc(C(F)(F)F)n3)s2)n1` [Compound 1.40, ethyl 1-[[5-[5-(trifluoromethyl)-1,2,4-oxadiazol-3-yl]-2-thienyl]methyl]-1,2,4-triazole-3-carboxylate], the melting point (commonly the temperature, or range, at which the solid turns liquid) was in the range of 136 to 140 °C. Besides, the pest or weed control at 200 ppm in series [1] is no less than 80%. For the same molecule, the pest or weed control at 200 ppm in series [2] was no less than 80%. In addition, the pest or weed control at 200 ppm in the series with Phakopsora pachyrhizi is no less than 80%. The inhibition of growth at 20 ppm in series [3] was no less than 80%.
With `CNC(=O)c1cnn(Cc2ccc(-c3noc(C(F)(F)F)n3)s2)c1` [Compound 1.38, N-methyl-1-[[5-[5-(trifluoromethyl)-1,2,4-oxadiazol-3-yl]-2-thienyl]methyl]pyrazole-4-carboxamide], the melting point is 150.8 to 155.7 °C. Moreover, the pest or weed control at 200 ppm in series [1] was no less than 80%. In addition, in series [2], the pest or weed control at 200 ppm was no less than 80%. The pest or weed control at 200 ppm in the series with Phakopsora pachyrhizi was no less than 80%. Further, the inhibition of growth at 20 ppm in series [3] was no less than 80%.
`CN(C)c1ncn(Cc2ccc(-c3noc(C(F)(F)F)n3)s2)n1` [Compound 1.4, N,N-dimethyl-1-[[5-[5-(trifluoromethyl)-1,2,4-oxadiazol-3-yl]-2-thienyl]methyl]-1,2,4-triazol-3-amine] returned a melting point of 113 to 116 °C. Besides, in series [1], the pest or weed control at 200 ppm is no less than 80%. The pest or weed control at 200 ppm in series [2] was no less than 80%. The pest or weed control at 200 ppm in the series on Phakopsora pachyrhizi was no less than 80%. Besides, in series [3], the inhibition of growth at 20 ppm is no less than 80%.
The molecule `CNC(=O)c1ncnn1Cc1ccc(-c2noc(C(F)(F)F)n2)s1` [Compound 1.48, N-methyl-2-[[5-[5-(trifluoromethyl)-1,2,4-oxadiazol-3-yl]-2-thienyl]methyl]-1,2,4-triazole-3-carboxamide] came in with a melting point of 132 to 140 °C. Besides, the pest or weed control at 200 ppm in series [1] was no less than 80%. Further, in series [2], the pest or weed control at 200 ppm is no less than 80%. The pest or weed control at 200 ppm in the series with Phakopsora pachyrhizi is no less than 80%. For the same molecule, the inhibition of growth at 20 ppm in series [3] is no less than 80%.
`CCCOC(=O)c1ncn(Cc2ccc(-c3noc(C(F)(F)F)n3)s2)n1` [Compound 1.43, propyl 1-[[5-[5-(trifluoromethyl)-1,2,4-oxadiazol-3-yl]-2-thienyl]methyl]-1,2,4-triazole-3-carboxylate] registered a melting point of 140 to 160 °C. Besides, in series [1], the pest or weed control at 200 ppm was no less than 80%. Also, the pest or weed control at 200 ppm in series [2] was no less than 80%. Also, the pest or weed control at 200 ppm in the series with Phakopsora pachyrhizi was no less than 80%. The inhibition of growth at 20 ppm in series [3] is no less than 80%.
`CC(c1ccc(-c2noc(C(F)(F)F)n2)s1)n1cc(C(=O)N2CCC2)cn1` (stereo not drawn) [Compound 1.35, azetidin-1-yl-[1-[1-[5-[5-(trifluoromethyl)-1,2,4-oxadiazol-3-yl]-2-thienyl]ethyl]pyrazol-4-yl]methanone]: the melting point lay within 76 to 78 °C. For the same molecule, the pest or weed control at 200 ppm in series [1] is no less than 80%. Besides, the pest or weed control at 200 ppm in series [2] is no less than 80%. Also, the pest or weed control at 200 ppm in the series with Phakopsora pachyrhizi was no less than 80%. Moreover, in series [3], the inhibition of growth at 20 ppm was no less than 80%.
Molecule `CN(C)C(=O)c1ccn(Cc2ccc(-c3noc(C(F)(F)F)n3)s2)n1` [Compound 1.57, N,N-dimethyl-1-[[5-[5-(trifluoromethyl)-1,2,4-oxadiazol-3-yl]-2-thienyl]methyl]pyrazole-3-carboxamide] gave a melting point of 90 to 96 °C. Also, the pest or weed control at 200 ppm in series [1] is no less than 80%. Moreover, in series [2], the pest or weed control at 200 ppm was no less than 80%. Also, the pest or weed control at 200 ppm in the series on Phakopsora pachyrhizi was no less than 80%. Further, in series [3], the inhibition of growth at 20 ppm is no less than 80%.
In turn, `CCCOC(=O)c1ccn(Cc2ccc(-c3noc(C(F)(F)F)n3)s2)n1` [Compound 1.46, propyl 1-[[5-[5-(trifluoromethyl)-1,2,4-oxadiazol-3-yl]-2-thienyl]methyl]pyrazole-3-carboxylate] had a melting point of 88 to 94 °C. In series [1], the pest or weed control at 200 ppm was no less than 80%. The pest or weed control at 200 ppm in series [2] was no less than 80%. Further, the pest or weed control at 200 ppm in the series on Phakopsora pachyrhizi is no less than 80%. Moreover, the inhibition of growth at 20 ppm in series [3] was no less than 80%.
Take `CONC(=O)c1ccnn1Cc1ccc(-c2noc(C(F)(F)F)n2)s1` [Compound 1.60, N-methoxy-2-[[5-[5-(trifluoromethyl)-1,2,4-oxadiazol-3-yl]-2-thienyl]methyl]pyrazole-3-carboxamide]: the melting point was in the range of 105 to 115 °C. The pest or weed control at 200 ppm in series [1] was no less than 80%. The pest or weed control at 200 ppm in series [2] is no less than 80%. In the series with Phakopsora pachyrhizi, the pest or weed control at 200 ppm was no less than 80%. Further, in series [3], the inhibition of growth at 20 ppm is no less than 80%.
`CNC(=O)c1ccnn1Cc1ccc(-c2noc(C(F)(F)F)n2)s1` [Compound 1.52, N-methyl-2-[[5-[5-(trifluoromethyl)-1,2,4-oxadiazol-3-yl]-2-thienyl]methyl]pyrazole-3-carboxamide] registered a melting point of 148 to 151 °C. Besides, in series [1], the pest or weed control at 200 ppm is no less than 80%. Further, the pest or weed control at 200 ppm in series [2] was no less than 80%. Also, in the series with Phakopsora pachyrhizi, the pest or weed control at 200 ppm is no less than 80%. Also, in series [3], the inhibition of growth at 20 ppm is no less than 80%.
Molecule `CONC(=O)c1ncn(Cc2ccc(-c3noc(C(F)(F)F)n3)s2)n1` [Compound 1.59, N-methoxy-1-[[5-[5-(trifluoromethyl)-1,2,4-oxadiazol-3-yl]-2-thienyl]methyl]-1,2,4-triazole-3-carboxamide] gave a melting point of 168 to 178 °C. In addition, in series [1], the pest or weed control at 200 ppm was no less than 80%. Further, the pest or weed control at 200 ppm in series [2] is no less than 80%. Besides, the pest or weed control at 200 ppm in the series with Phakopsora pachyrhizi is no less than 80%. Further, the inhibition of growth at 20 ppm in series [3] was no less than 80%.
`CONC(=O)c1ccn(Cc2ccc(-c3noc(C(F)(F)F)n3)s2)n1` [Compound 1.56, N-methoxy-1-[[5-[5-(trifluoromethyl)-1,2,4-oxadiazol-3-yl]-2-thienyl]methyl]pyrazole-3-carboxamide]: the melting point fell in the range of 134 to 141 °C. Further, the pest or weed control at 200 ppm in series [1] was no less than 80%. In addition, the pest or weed control at 200 ppm in series [2] is no less than 80%. In addition, the pest or weed control at 200 ppm in the series with Phakopsora pachyrhizi is no less than 80%. Further, the inhibition of growth at 20 ppm in series [3] was no less than 80%.
Molecule `COCCNC(=O)c1cnn(Cc2ccc(-c3noc(C(F)(F)F)n3)s2)c1` [Compound 1.39, N-(2-methoxyethyl)-1-[[5-[5-(trifluoromethyl)-1,2,4-oxadiazol-3-yl]-2-thienyl]methyl]pyrazole-4-carboxamide] returned a melting point of 135.3 to 137.9 °C. For the same molecule, the pest or weed control at 200 ppm in series [1] was no less than 80%. Moreover, the pest or weed control at 200 ppm in series [2] is no less than 80%. The pest or weed control at 200 ppm in the series with Phakopsora pachyrhizi is no less than 80%. Besides, the inhibition of growth at 20 ppm in series [3] is no less than 80%.
The molecule `CNC(=O)c1ccn(Cc2ccc(-c3noc(C(F)(F)F)n3)s2)n1` [Compound 1.51, N-methyl-1-[[5-[5-(trifluoromethyl)-1,2,4-oxadiazol-3-yl]-2-thienyl]methyl]pyrazole-3-carboxamide] gave a melting point of 124 to 126 °C. In series [1], the pest or weed control at 200 ppm is no less than 80%. In addition, in series [2], the pest or weed control at 200 ppm is no less than 80%. The pest or weed control at 200 ppm with Phakopsora pachyrhizi was no less than 80%. In addition, the inhibition of growth at 20 ppm in series [3] is no less than 80%.
`CNC(=O)c1ncn(Cc2ccc(-c3noc(C(F)(F)F)n3)s2)n1` [Compound 1.49, N-methyl-1-[[5-[5-(trifluoromethyl)-1,2,4-oxadiazol-3-yl]-2-thienyl]methyl]-1,2,4-triazole-3-carboxamide] registered a melting point of 198 to 218 °C. Besides, the pest or weed control at 200 ppm in series [1] was no less than 80%. Also, the pest or weed control at 200 ppm in series [2] was no less than 80%. The pest or weed control at 200 ppm in the series on Phakopsora pachyrhizi was no less than 80%. Further, in series [3], the inhibition of growth at 20 ppm was no less than 80%.
